From PubChem BioAssay (NCI)
Several values for one entry are separate records, joined by “and”; a condition that tells them apart may be missing. Equal values may be shown once.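 1) Cells in 96-well plates. 2) Compound, 48 h, 5 concentrations. 3) Linear interpolation between surrounding doses. 4) Unreached endpoint = highest concentration. At the GI50, growth is halved. TGI marks complete inhibition of growth.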

Key:
Assay in all cases: DTP human tumour cell line panel, 48 h
HCT-15 colon = test system: HCT-15 colon
DU-145 prostate = test system: DU-145 prostate
OVCAR-5 ovarian = test system: OVCAR-5 ovarian
HS 578T breast = test system: HS 578T breast
NCI/ADR-RES ovarian = test system: NCI/ADR-RES ovarian
COLO 205 colon = test system: COLO 205 colon
HL-60(TB) leukemia = test system: HL-60(TB) leukemia
NCI-H226 lung = test system: NCI-H226 lung
MDA-MB-231 breast = test system: MDA-MB-231 breast
NCI-H23 lung = test system: NCI-H23 lung

Row | SMILES | GI50 (HCT-15 colon) | TGI (HCT-15 colon) | GI50 (DU-145 prostate) | TGI (DU-145 prostate) [µM] | GI50 (OVCAR-5 ovarian) | TGI (OVCAR-5 ovarian) | GI50 (HS 578T breast) | TGI (HS 578T breast) | GI50 (NCI/ADR-RES ovarian) | TGI (NCI/ADR-RES ovarian) [µM] | GI50 (COLO 205 colon) | TGI (COLO 205 colon) | GI50 (HL-60(TB) leukemia) | TGI (HL-60(TB) leukemia) [µM] | GI50 (NCI-H226 lung) | TGI (NCI-H226 lung) | GI50 (MDA-MB-231 breast) | TGI (MDA-MB-231 breast) | GI50 (NCI-H23 lung) | TGI (NCI-H23 lung)
1 | COc1ccccc1-c1nccc(COc2ccccc2C[C@@H](Oc2ncnc3sc(-c4ccc(F)cc4)c(-c4ccc(OCCN5CCN(C)CC5)c(Cl)c4C)c23)C(=O)O)n1 | 5.82 µM | 16.4 µM | 5.84 µM | 13.9 | 2.12 µM | 6.25 µM | 0.515 µM | 3.29 µM | 18.2 µM | > 100 | 1.86 µM | 4.33 µM | 0.0205 µM | 0.0524 | 3 µM | 10.9 µM | 1.61 µM | 3.29 µM | 1.11 µM | 3.84 µM
2 | CCOc1cccc(/C=N/NC(=O)Cc2ccc(Nc3ccnc(C(F)(F)F)c3)cc2)c1O | 0.909 µM | > 100 µM | 2.06 µM | > 100 | 32.6 µM | > 100 µM | 5.75 µM | > 100 µM | 4.23 µM | > 100 | 3.9 µM | > 100 µM | 1.03 µM | 4.22 | 3.21 µM | 34.9 µM | 3.15 µM | > 100 µM | 5.26 µM | > 100 µM
3 | Cc1nc2cc(Nc3nc(Nc4ccc(F)cc4)nc(-c4ccc(Cl)cc4)n3)ccc2n1Cc1ccccc1 | 3.77 µM | > 100 µM | 23.4 µM | > 100 | 5.76 µM | > 100 µM | 12.2 µM | > 100 µM | 5.51 µM | 33.8 | 3.17 µM | 59.8 µM | 3.28 µM | > 100 | 11.4 µM | 37.2 µM | 9.97 µM | > 100 µM | 14.7 µM | > 100 µM
4 | NC(=O)c1c(NC(=O)c2cccc(C(F)(F)F)c2)sc2c1CCC(=O)C2 | 0.321 µM | 1.82 µM | 3.73 µM | > 100 | 0.83 µM | 9.42 µM | 0.545 µM | > 100 µM | 0.528 µM | 7.69 | 0.437 µM | 1.8 µM | 0.442 µM | 6.2 | 5.37 µM | > 100 µM | 0.379 µM | 2.73 µM | 0.317 µM | 4.29 µM
5 | COc1ccc(-c2cn(-c3cc(OC)c(OC)c(OC)c3)c(=O)n2-c2ccccc2)cc1 | 52.6 µM | > 100 µM | > 100 µM | > 100 | > 100 µM | > 100 µM | 53.2 µM | > 100 µM | 74.6 µM | > 100 | > 100 µM | > 100 µM | 28.1 µM | > 100 | > 100 µM | > 100 µM | > 100 µM | > 100 µM | > 100 µM | > 100 µM
6 | C=C1C(=O)C23CC1CCC2C12CO[C@@]3(O)[C@@H](O)C1C(C)(C)C=CC2=O (some centres not stated) | 1.81 µM | 1.86 µM and 3.65 µM | – | 41.3 | 25 µM | 9.96 µM and 40.5 µM | – | 81.6 µM | – | 60.4 | 3.18 µM | 1.86 µM and 10.1 µM | 0.434 µM | – | – | 12.5 µM | – | 12 µM | 2.9 µM | 1.42 µM and 7.88 µM
7 | COC12C=C/C(=C(/C(=O)OCc3csc(SC)n3)C(=O)CCCCCCCCC3(OC)C=C/C(=C(/C(=O)OCc4cnc(SC)s4)C(=O)CCCCCCCC1)O3)O2 (configuration not stated) | 17 µM | > 100 µM | 5.39 µM | > 100 | 7.63 µM | > 100 µM | 4.52 µM | 57.6 µM | 31.3 µM | > 100 | 3.44 µM | > 100 µM | 3.1 µM | > 100 | 3.48 µM | 17.1 µM | 2.51 µM | 26.2 µM | 2.5 µM | > 100 µM
8 | CC(C)c1ccc2c(c1)c(SC(C)(C)C)c(CC(C)(C)C(=O)O)n2Cc1ccc(Cl)cc1 | 8.8 µM | 23.4 µM | 6.76 µM | 19 | 14.9 µM | 29.2 µM | 11.4 µM | 29.4 µM | 10.1 µM | 26.7 | 8.46 µM | 21.9 µM | 8.5 µM | 30.3 | 12.6 µM | 30.8 µM | 12.6 µM | 27.3 µM | 10.8 µM | 28.1 µM
9 | CC(=O)Nc1ccc2c(c1)CN1C(=O)c3ccccc3C1=N2 | > 100 µM | > 100 µM | > 100 µM | > 100 | > 100 µM | > 100 µM | > 100 µM | > 100 µM | > 100 µM | > 100 | > 100 µM | > 100 µM | > 100 µM | > 100 | > 100 µM | > 100 µM | > 100 µM | > 100 µM | > 100 µM | > 100 µM
10 | N#Cc1c(-c2ccc(Cl)cc2)csc1NC(=O)Nc1cccc(C(F)(F)F)c1 | 2.38 µM | 10.2 µM | 3.21 µM | 13.9 | 2.98 µM | 12.9 µM | 3.25 µM | 23.9 µM | 2.1 µM | 4.7 | 1.91 µM | 3.88 µM | 2.43 µM | 6.69 | 3.42 µM | 10.5 µM | 1.78 µM | 3.72 µM | 1.99 µM | 5.33 µM
11 | COc1ccc2c(c1)c(-c1cc(-c3cn(C)c4ccc(OC)cc34)[nH]n1)cn2C | > 100 µM | > 100 µM | > 100 µM | > 100 | > 100 µM | > 100 µM | > 100 µM | > 100 µM | > 100 µM | > 100 | > 100 µM | > 100 µM | > 100 µM | > 100 | > 100 µM | > 100 µM | > 100 µM | > 100 µM | > 100 µM | > 100 µM
12 | CCCCCCCCCCCCNC(=O)[C@H]1CSC(c2ccsc2)N1 (some centres not stated) | 0.883 µM | 1.69 µM | 0.979 µM | 1.82 | 0.991 µM | 1.83 µM | 1.17 µM | 2.45 µM | 1.23 µM | 2.56 | 7.95 µM | 15.9 µM | 0.91 µM | 2.31 | 0.896 µM | 1.74 µM | 0.946 µM | 1.74 µM | 0.992 µM | 1.94 µM
13 | Cc1ccc(-c2cc(C(Cl)Cl)on2)cc1 | 42.4 µM | > 100 µM | 91.4 µM | > 100 | > 100 µM | > 100 µM | > 100 µM | > 100 µM | 44.9 µM | > 100 | 35.4 µM | > 100 µM | 62.9 µM | > 100 | 48.2 µM | > 100 µM | > 100 µM | > 100 µM | 55.3 µM | > 100 µM
14 | Oc1cccc(-c2nc(N3CCOCC3)c3oc4ncccc4c3n2)c1 | 0.125 µM and 0.112 µM | > 100 µM | 0.188 µM and 0.161 µM | > 100 | 2.38 µM and 2.84 µM | > 26.6 µM | 0.0576 µM and 0.0526 µM | 2.94 µM and 0.409 µM | 0.147 µM and 0.225 µM | – | 10.5 µM and 17.8 µM | 41.7 µM and > 72 µM | 0.117 µM and 0.364 µM | – | 4.12 µM and 7.21 µM | 78.6 µM and 68.3 µM | 0.34 µM and 0.3 µM | 54.5 µM and 33.2 µM | 0.269 µM and 0.292 µM | > 100 µM and 31.4 µM
